Test results reported in patent US12173018B2, “Penicillin-binding protein inhibitors” (priority 2018, dated 2024).
Read-outs that look alike come from different tables or passages of the source.

Legend:
E. coli PBP2 = E. coli PBP2 (Escherichia coli (strain K12), UniProt P0AD65); experiment: E. coli PBP2 Bocillin-FL fluorescence polarization competition binding assay; details: fluorescence polarization competition binding with Bocillin-FL; read-out: E. coli K12 PBP2 Potency (EC50)
Outline: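 Fluorescence polarization competition with Bocillin-FL (0.1 μM final) and purified PBP2 (1.5 μM final) in 50 mM Hepes pH 8.0, 300 mM NaCl, 5% glycerol. FP (ex 490/em 520 nm) read for 90 min after Bocillin-FL addition; EC50 is the inhibitor concentration reducing Bocillin-FL binding by half.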

E. coli PBP4 = E. coli PBP4 (Escherichia coli (strain K12), UniProt P24228); experiment: E. coli PBP4 Bocillin-FL fluorescence polarization competition binding assay
Source text: To determine the ability of boronic acid-based test PBP inhibitors to bind Penicillin Binding Proteins (PBPs), Bocillin-FL (fluorescently-labeled penicillin V; ThermoFisher Scientific) was used in a fluorescence polarization (FP) competition binding assay to assess inhibitor binding to PBP2, PBP3 or PBP4 from Escherichia coli. PBPs were cloned and purified as described previously (King, D. T, et al., ACS Infectious Diseases 2015, 1, 175-184). To establish assay conditions for competition binding, an enzyme titration/saturation binding experiment was initially performed. Bocillin-FL was prepared at 0.2 μM in a buffer comprised of 50 mM Hepes (pH 8.0), 300 mM NaCl and 5% (v/v) glycerol. Saturation binding was performed by mixing 40 μl of PBP solutions ranging in concentrations from 0-12 μM with 40 μl of the 0.2 μM Bocillin-FL solution, in individual wells of a black 384-well microplate. FP was measured immediately upon mixing (Excitation, 490 nm; Emission, 520 nm; g-factor, 0.96), using a Cytation3 (BioTek) microplate reader and measured continuously for up to 120 minutes. […] Assays (80 μl final volume) were performed with PBPs at a final concentration of 1.5 μM, Bocillin-FL at 0.1 μM and beta-lactam concentrations that ranged from 0-1000 μM. […] Bocillin-FL was added and the FP immediately measured for 60 minutes (90 minutes for PBP2). The beta-lactam potency was reported as the concentration of beta-lactam required to reduce binding of Bocillin-FL by […] (EC50). […] Binding assays for boronic acid PBP inhibitors were performed in an identical fashion.

E. coli PBP1b = E. coli PBP1b (Escherichia coli (strain K12), UniProt P02919); experiment: Radioligand competition binding assay with 14C-labeled boronic acid probe, PBP1b
[1] = fluorescence polarization competition binding with Bocillin-FL, read-out: E. coli K12 PBP4 Potency (EC50)

Sequence of E. coli PBP1b (P02919 whole entry): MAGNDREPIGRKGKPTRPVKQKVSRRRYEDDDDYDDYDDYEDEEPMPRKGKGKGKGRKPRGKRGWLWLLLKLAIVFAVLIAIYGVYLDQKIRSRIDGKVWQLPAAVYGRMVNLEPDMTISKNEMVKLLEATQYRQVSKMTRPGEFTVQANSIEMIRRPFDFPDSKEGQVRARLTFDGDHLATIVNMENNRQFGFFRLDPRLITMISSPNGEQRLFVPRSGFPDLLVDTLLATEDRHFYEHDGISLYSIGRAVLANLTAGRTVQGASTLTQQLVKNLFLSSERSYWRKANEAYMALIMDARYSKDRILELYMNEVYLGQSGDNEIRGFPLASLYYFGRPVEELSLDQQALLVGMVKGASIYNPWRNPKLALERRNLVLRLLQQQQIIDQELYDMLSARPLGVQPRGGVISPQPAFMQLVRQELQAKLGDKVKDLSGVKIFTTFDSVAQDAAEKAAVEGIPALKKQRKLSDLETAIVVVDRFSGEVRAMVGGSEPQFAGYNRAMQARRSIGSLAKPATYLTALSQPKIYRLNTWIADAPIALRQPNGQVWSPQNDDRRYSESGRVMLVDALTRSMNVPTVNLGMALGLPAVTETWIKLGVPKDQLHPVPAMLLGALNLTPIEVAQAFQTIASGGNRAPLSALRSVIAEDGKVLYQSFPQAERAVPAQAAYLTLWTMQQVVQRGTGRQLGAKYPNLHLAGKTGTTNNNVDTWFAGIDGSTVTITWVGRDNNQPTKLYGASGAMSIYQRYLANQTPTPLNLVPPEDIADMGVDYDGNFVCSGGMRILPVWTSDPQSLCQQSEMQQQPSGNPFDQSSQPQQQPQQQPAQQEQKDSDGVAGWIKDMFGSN
Sequence of E. coli PBP4 (P24228 21-477): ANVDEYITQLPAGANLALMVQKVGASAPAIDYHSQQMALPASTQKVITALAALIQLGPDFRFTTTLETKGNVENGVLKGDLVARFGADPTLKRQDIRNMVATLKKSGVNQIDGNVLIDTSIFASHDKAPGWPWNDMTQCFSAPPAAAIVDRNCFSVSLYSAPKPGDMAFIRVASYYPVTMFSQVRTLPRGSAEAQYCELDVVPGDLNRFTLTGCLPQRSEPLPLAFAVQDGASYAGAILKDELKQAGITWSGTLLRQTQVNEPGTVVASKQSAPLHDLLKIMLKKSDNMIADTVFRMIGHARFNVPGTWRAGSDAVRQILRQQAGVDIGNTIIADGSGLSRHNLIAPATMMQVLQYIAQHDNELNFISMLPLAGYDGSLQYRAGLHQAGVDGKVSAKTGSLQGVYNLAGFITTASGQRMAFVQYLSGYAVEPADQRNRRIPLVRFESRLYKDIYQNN
Sequence of E. coli PBP2 (P0AD65 whole entry): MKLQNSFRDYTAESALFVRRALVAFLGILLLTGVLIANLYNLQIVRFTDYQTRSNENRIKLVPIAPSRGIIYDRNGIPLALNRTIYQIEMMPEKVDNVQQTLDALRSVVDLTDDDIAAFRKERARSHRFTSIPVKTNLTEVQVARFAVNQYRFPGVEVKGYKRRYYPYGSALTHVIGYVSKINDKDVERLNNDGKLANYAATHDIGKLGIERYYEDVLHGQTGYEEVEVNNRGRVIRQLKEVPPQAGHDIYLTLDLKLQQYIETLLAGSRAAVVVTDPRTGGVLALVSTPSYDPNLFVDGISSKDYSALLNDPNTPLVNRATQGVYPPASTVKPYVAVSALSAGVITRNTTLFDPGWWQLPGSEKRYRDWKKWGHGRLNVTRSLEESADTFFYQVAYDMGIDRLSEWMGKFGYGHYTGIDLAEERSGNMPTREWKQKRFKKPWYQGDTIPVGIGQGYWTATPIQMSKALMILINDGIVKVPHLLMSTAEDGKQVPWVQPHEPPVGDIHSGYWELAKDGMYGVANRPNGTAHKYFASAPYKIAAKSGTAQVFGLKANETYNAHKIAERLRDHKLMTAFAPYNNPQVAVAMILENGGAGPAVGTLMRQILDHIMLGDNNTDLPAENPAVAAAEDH

For CCN1CCN(C(=O)N[C@@H](C(=O)N[C@H]2Cc3ccc(F)c(C(=O)O)c3OB2O)[C@@H](C)O)C(=O)C1=O [Example 110, (R)-3-((2R,3R)-2-(4-ethyl-2,3-dioxopiperazine-1-carboxamido)-3-hydroxybutanamido)-7-fluoro-2-hydroxy-3,4-dihydro-2H-benzo[e][1,2]oxaborinine-8-carboxylic acid], the EC50 (E. coli PBP2) was > 500 µM, the EC50 (E. coli PBP4; [1]) was > 500 µM and the EC50 (E. coli PBP1b) was > 100 µM.

In the case of CCN1CCN(C(=O)NC(C(=O)N[C@H]2Cc3cccc(C(=O)O)c3OB2O)c2csc(N)n2)C(=O)C1=O (stereo partly drawn) [Example 5, (3R)-3-(2-(2-aminothiazol-4-yl)-2-(4-ethyl-2,3-dioxopiperazine-1-carboxamido)acetamido)-2-hydroxy-3,4-dihydro-2H-benzo[e][1,2]oxaborinine-8-carboxylic acid], the EC50 (E. coli PBP2) is reported as 30 to 500 µM, the EC50 (E. coli PBP4; [1]) is reported as > 500 µM and the EC50 (E. coli PBP1b) is reported as < 10 µM.

For CCN1CCN(C(=O)NC(C(=O)N[C@H]2Cc3cccc(C(=O)O)c3OB2O)c2cnc(O)cn2)C(=O)C1=O (stereo partly drawn) [Example 121, (3R)-3-(2-(4-ethyl-2,3-dioxopiperazine-1-carboxamido)-2-(5-hydroxypyrazin-2-yl)acetamido)-2-hydroxy-3,4-dihydro-2H-benzo[e][1,2]oxaborinine-8-carboxylic acid], the EC50 (E. coli PBP2) was > 500 µM, the EC50 (E. coli PBP4; [1]) was > 500 µM and the EC50 (E. coli PBP1b) was > 100 µM.

In the case of O=C(O)c1c(F)ccc2c1OB(O)[C@@H](NC(=O)C(NC(=O)N1CCN(CCF)C(=O)C1=O)c1ccc(O)c(O)c1Cl)C2 (some centres unmarked) [Example 131], the EC50 (E. coli PBP2) is reported as > 500 µM, the EC50 (E. coli PBP4) is reported as 30 to 500 µM and the EC50 (E. coli PBP1b) is reported as 10 to 100 µM.

CCN1CCN(C(=O)NC(C(=O)N[C@H]2Cc3cccc(C(=O)O)c3OB2O)c2cc(O)c(O)cc2F)C(=O)C1=O (stereo partly drawn) [Example 90, (3R)-3-(2-(4-ethyl-2,3-dioxopiperazine-1-carboxamido)-2-(2-fluoro-4,5-dihydroxyphenyl)acetamido)-2-hydroxy-3,4-dihydro-2H-benzo[e][1,2]oxaborinine-8-carboxylic acid] was tested, and the EC50 (E. coli PBP2) was > 500 µM and the EC50 (E. coli PBP4; [1]) was > 500 µM.

With CCN1CCN(C(=O)NC(C(=O)N[C@H]2Cc3cccc(C(=O)O)c3OB2O)c2cccc(O)n2)C(=O)C1=O (stereo partly drawn) [Example 117, (3R)-3-(2-(4-ethyl-2,3-dioxopiperazine-1-carboxamido)-2-(6-hydroxypyridin-2-yl)acetamido)-2-hydroxy-3,4-dihydro-2H-benzo[e][1,2]oxaborinine-8-carboxylic acid] the EC50 (E. coli PBP2) was > 500 µM, the EC50 (E. coli PBP4; [1]) was > 500 µM and the EC50 (E. coli PBP1b) was > 100 µM.

With CCN1CCN(C(=O)NC(C(=O)N[C@H]2Cc3cccc(C(=O)O)c3OB2O)c2cnc(N)s2)C(=O)C1=O (stereo partly drawn) [Example 51, (3R)-3-(2-(2-aminothiazol-5-yl)-2-(4-ethyl-2,3-dioxopiperazine-1-carboxamido)acetamido)-2-hydroxy-3,4-dihydro-2H-benzo[e][1,2]oxaborinine-8-carboxylic acid] the EC50 (E. coli PBP2) was > 500 µM, the EC50 (E. coli PBP4; [1]) was > 500 µM and the EC50 (E. coli PBP1b) was 10 to 100 µM.
